# According to patent publication US12023319B2, “Carboxylic acid aromatic amides” (priority 2016, dated 2024):
# Target: T1, human Bradykinin B1 receptor (Homo sapiens, UniProt P46663)
# T1 construct: host or cells: CHO-K1
# T1 sequence (P46663 1-353): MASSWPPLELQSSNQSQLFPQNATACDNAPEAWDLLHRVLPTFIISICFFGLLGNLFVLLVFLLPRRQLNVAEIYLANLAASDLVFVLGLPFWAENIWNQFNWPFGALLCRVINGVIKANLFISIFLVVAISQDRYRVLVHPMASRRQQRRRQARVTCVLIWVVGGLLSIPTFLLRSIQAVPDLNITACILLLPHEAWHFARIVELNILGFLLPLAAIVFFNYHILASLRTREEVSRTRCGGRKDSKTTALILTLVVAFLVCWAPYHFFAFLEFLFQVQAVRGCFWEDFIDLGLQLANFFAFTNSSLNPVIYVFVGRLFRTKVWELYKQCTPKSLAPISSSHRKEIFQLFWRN
# Assay: Calcium flux assay (FLIPR), CHO-K1 cells expressing human Bradykinin B1 receptor, absence of 0.1% BSA (hB1 free IC50)
# Type: cell-based
# Conditions: absence of 0.1% BSA in assay buffer
# Method: The potency to inhibit the Bradykinin B1 receptor was determined for the Compound Examples of this invention in a cell-based fluorescent calcium-mobilisation assay. The assay measures the ability of Compound Examples to inhibit Bradykinin B1 receptor agonist-induced increase of intracellular free Ca^2+ in the cell line expressing Bradykinin B1 receptor. Specifically, calcium indicator-loaded cells are pre-incubated in the absence or presence of different concentrations of Compound Examples followed by the stimulation with a selective Bradykinin B1 receptor agonist peptide. The change of the intracellular Ca^2+ concentration is monitored with a fluorescent plate reader FLIPR^TETRA® (Molecular Devices).
# Calcium Flux Assays (FLIPR) with Cells Expressing Human Bradykinin B1 Receptor (hB1)
# CHO-K1 cell line expressing human Bradykinin B1 receptor is purchased from Euroscreen (Gosselies, Belgium, with reference name hB1-D1). The cells are grown in Nutrient Mixture Ham's F12 (Sigma) containing 10% Foetal bovine serum (Sigma) and 400 μg/mL G418 (Sigma), 5 μg/mL puromycin (Sigma).
# The effect of BSA on the potency of endothelin receptor antagonists have been described in the prior art (Wu-Wong, J. R. et al. (1997), JPET 281: 791-798). The teaching can be applied in analogy to testing the potency of Bradykinin B1 receptor antagonist in the FLIPR assays.
# For the calcium flux assay, 80% confluent cells are detached from the culture vessels with Versene (Gibco), and seeded into 384-well plates (Cell binding Surface; Corning, NY; #3683) at a density of 15,000 cells per well. Cells are seeded in a volume of 50 μL in medium without antibiotics and incubated overnight in a humidified atmosphere with 5% CO2 at 37° C. […] The calcium indicator loaded cells are incubated at 37° C. for 2 hrs. Extracellular dye is then removed and each well is filled with 45 μL of assay buffer. Cell plates are kept in dark until used. Compound examples are assayed at 8 concentrations in triplicate. Serial 10-fold dilutions in 100% DMSO are made at a 100-times higher concentration than the final concentration, and then diluted 1:10 in assay buffer. 5 μL of each diluted compound is added to the well of cell plates (yielding final concentration with 1% DMSO), and incubated for 30 min at 28° C. before the addition of Bradykinin B1 receptor agonist on the FLIPR instrument.
# The addition of agonist 20 μl per well to the assay plate is carried out on the FLIPR instrument while continuously monitoring Ca2+-dependent fluorescence at 538 nm. A peptide antagonist Lys-(Des-Arg-Leu)-Bradykinin (Bachem, Brackley) at 20 µM is used to determine the full inhibition as control.
# Peak fluorescence is used to determine the response to agonist obtained at each concentration of Compound Examples by the following equation: % Response=100*(RFU(compound)−RFU(control))/(RFU(DMSO)−RFU(control))
# RFU means relative fluorescence units.
# Control means full inhibition by the peptide antagonist Lys-(Des-Arg-Leu)-Bradykinin at 20 µM.
# The response values are plotted against the logarithm of the compound concentrations. The Compound Examples are tested in triplicates per plate and mean values are plotted in Excel XLfit to determine IC50 values, percentage of maximal inhibition and the Hill slopes.
row,Compound,IC50 [nM]
1,"CC(C)(C)c1cn(-c2c(F)cc(NC(=O)C3(c4ccc(C(F)(F)F)cc4F)CC3)cc2C(=O)O)cn1 [Example 90, 2-(4-tert-Butyl-1H-imidazol-1-yl)-3-fluoro-5-[({1-[2-fluoro-4-(trifluoromethyl)phenyl]cyclopropyl}carbonyl)amino]benzoic acid]",24
2,"CC(C)Cn1cc(-c2c(F)cc(NC(=O)C3(c4ccc(C(F)(F)F)cc4F)CC3)cc2C(=O)O)cn1 [Example 92, 3-Fluoro-5-[({1-[2-fluoro-4-(trifluoromethyl)phenyl]cyclopropyl}carbonyl)amino]-2-(1-isobutyl-1H-pyrazol-4-yl)benzoic acid]",29
3,"CC(C)(C)n1cc(-c2c(F)cc(NC(=O)C3(c4ccc(C(F)(F)F)cc4F)CC3)cc2C(=O)O)cn1 [Example 93, 2-(1-tert-Butyl-1H-pyrazol-4-yl)-3-fluoro-5-[({1-[2-fluoro-4-(trifluoromethyl)phenyl]cyclopropyl}carbonyl)amino]benzoic acid]",61
4,"O=C(O)c1cc(NC(=O)C2(c3ccc(C(F)(F)F)cc3F)CC2)cc(F)c1-c1ccc(C(F)F)nc1 [Example 94, 2-[6-(Difluoromethyl)pyridin-3-yl]-3-fluoro-5-[({1-[2-fluoro-4-(trifluoromethyl)phenyl]cyclopropyl}carbonyl)amino]benzoic acid]",20
5,"O=C(O)c1c(-c2cnn(C3CCC3)c2)ccc(NC(=O)C2(c3ccc(C(F)(F)F)cc3F)CC2)c1F [Example 98, 6-(1-Cyclobutyl-1H-pyrazol-4-yl)-2-fluoro-3-[({1-[2-fluoro-4-(trifluoromethyl)phenyl]cyclopropyl}carbonyl)amino]benzoic acid]",2700
6,"O=C(O)c1c(-c2cnn(C3CCC3)c2)ccc(NC(=O)C2(c3ccc(OC(F)(F)F)cc3F)CC2)c1F [Example 99, 6-(1-Cyclobutyl-1H-pyrazol-4-yl)-2-fluoro-3-[({1-[2-fluoro-4-(trifluoromethoxy)phenyl]cyclopropyl}carbonyl)amino]benzoic acid]",2000

# Now from value to compound:
row,IC50 [nM],Compound
1,110,"O=C(O)c1cc(NC(=O)C2(c3ccc(C(F)(F)F)cc3F)CC2)cc(Cl)c1-c1ccc(C(F)F)nc1 [Example 102, 3-Chloro-2-[6-(difluoromethyl)pyridin-3-yl]-5-[({1-[2-fluoro-4-(trifluoromethyl)phenyl]cyclopropyl}carbonyl)amino]benzoic acid]"
2,62,"O=C(O)c1cc(NC(=O)C2(c3ccc(OC(F)(F)F)cc3F)CC2)cc(Cl)c1-c1ccc(C(F)F)nc1 [Example 103, 3-Chloro-2-[6-(difluoromethyl)pyridin-3-yl]-5-[({1-[2-fluoro-4-(trifluoromethoxy)phenyl]cyclopropyl}carbonyl)amino]benzoic acid]"
3,130,"O=C(O)c1cc(NC(=O)C2(c3ccc(C(F)(F)F)cc3F)CC2)cc(Cl)c1-c1ccc(C(F)(F)F)nc1 [Example 104, 3-Chloro-5-[({1-[2-fluoro-4-(trifluoromethyl)phenyl]cyclopropyl}carbonyl)amino]-2-[6-(trifluoromethyl)pyridin-3-yl]benzoic acid]"
4,770,"Cc1cc(NC(=O)C2(c3ccc(C(F)(F)F)cc3F)CC2)cc(C(=O)O)c1-c1ccc(C(F)F)nc1 [Example 109, 2-[6-(Difluoromethyl)pyridin-3-yl]-5-[({1-[2-fluoro-4-(trifluoromethyl)phenyl]cyclopropyl}carbonyl)amino]-3-methylbenzoic acid]"
5,580,"Cc1cc(NC(=O)C2(c3ccc(OC(F)(F)F)cc3F)CC2)cc(C(=O)O)c1-c1ccc(C(F)F)nc1 [Example 110, 2-[6-(Difluoromethyl)pyridin-3-yl]-5-[({1-[2-fluoro-4-(trifluoromethoxy)phenyl]cyclopropyl}carbonyl)amino]-3-methylbenzoic acid]"
6,2400,"Cc1cc(NC(=O)C2(c3ccc(C(F)(F)F)cc3F)CC2)cc(C(=O)O)c1-c1ccc(C(F)(F)F)nc1 [Example 111, 5-[({1-[2-Fluoro-4-(trifluoromethyl)phenyl]cyclopropyl}carbonyl)amino]-3-methyl-2-[6-(trifluoromethyl)pyridin-3-yl]benzoic acid]"
